Test results from US7964647B2 (Mutual Pharmaceutical Company, Inc., priority 2007, dated 2011).
Read-outs that look alike come from different tables or passages of the source.

Assays:
[1] = Pharmacokinetic study of standard-dose acute gout regimen 4.8 mg over 6 hours (Example 6)
Description: This study was a single center, randomized, double-blind, double-dummy pharmacokinetic and exploratory ECG safety study.
Those randomized to moxifloxacin received 1×400 mg tablet.

[2] = metabolite after low-dose colchicine 1.8 mg, all subjects
Description: This study was a single-center, single-period, open-label pharmacokinetic study conducted in healthy subjects under fasting conditions.
Subjects received 2×0.6 mg tablets initially followed by 1×0.6 mg tablet 1 hour later.

[3] = metabolite after single and multiple 0.6 mg colchicine doses
Description: Subjects received a light breakfast served 60 minutes following dose administration in the morning and the evening dose was administered 90 minutes after an evening meal on Days 15 through 24 only. […] Study periods were separated by a 14-day washout. Following the single dose and the last dose of the multiple dose regimen (beginning on the mornings of Day 1 and Day 25, respectively), blood samples were collected (6 mL each) from each subject within 1 hour prior to dosing and after dose administration at study hours 0.5, 1, 1.5, 2, 3, 4, 6, 8, 10, 12, and 24 (while confined) and 36, 48, 72, and 96 (on an outpatient basis).

[4] = metabolite after standard-dose colchicine 4.8 mg over 6 hours, N = 8
[5] = standard-dose colchicine 4.8 mg

Row | Compound | 2-DMC plasma concentrations ([1]; metabolite after standard-dose colchicine 4.8 mg, all subjects) | 2-DMC plasma concentrations [2] | 2-DMC plasma concentrations (all below LOQ) [3] [ng/mL] | 3-DMC AUC∞, mean [1, 4] [ng·h/mL] | 3-DMC Ke, mean [1, 4] [h⁻¹] | 3-DMC t1/2, mean [1, 4] [h] | 3-DMC AUC0-t, mean ([1]; metabolite after standard-dose colchicine 4.8 mg over 6 hours, N = 13) [ng·h/mL] | 3-DMC Tmax, mean ([1]; metabolite after standard-dose colchicine 4.8 mg over 6 hours, N = 14) [h] | 3-DMC Cmax, mean ([1]; metabolite after standard-dose colchicine 4.8 mg over 6 hours, N = 15) [ng/mL] | Mean 3-DMC AUC0-t as % of mean colchicine AUC0-t [1, 5] [%] | Mean 3-DMC AUC∞ as % of mean colchicine AUC∞ [1, 5] [%] | Mean 3-DMC Cmax as % of mean colchicine Cmax [1, 5]
1 | COc1cc2c(c(OC)c1O)-c1ccc(OC)c(=O)cc1[C@@H](NC(C)=O)CC2 [2-DMC, N-[(7S,12aS)-2-hydroxy-1,3,10-trimethoxy-9-oxo-5,6,7,9-tetrahydrobenzo[a]heptalen-7-yl]-acetamide] | below LOQ | below the LOQ | < 0.2 |  |  |  |  |  |  |  |  | 
2 | COc1c(O)cc2c(c1OC)-c1ccc(OC)c(=O)cc1[C@@H](NC(C)=O)CC2 [3-DMC, N-[(7S,12aS)-3-hydroxy-1,2,10-trimethoxy-9-oxo-5,6,7,9-tetrahydrobenzo[a]heptalen-7-yl]-acetamide] |  |  |  | 4.84 | 0.1418 | 6.93 | 2.09 | 5.06 | 0.32 | ~2 | ~4.1 | approximately 4.7%
